From US20040072246A1, “System and method for identifying t cell and other epitopes and the like” (priority 2003, published 2004)
Where no end group is shown, it is not given here.

Key:
Assay type in all cases: cell-based, human
T-cell clone CSF-3 = assay: Proliferative assay of T-cell clone CSF-3 (3H-thymidine incorporation); conditions: for EC50: peptide concentration inducing half-maximal proliferation, TCC CSF-3, Table 5; for Potency EC50: concentration inducing half-maximal proliferation; for Potency max. response / Potency % of Max. response / Potency % of max. response: percentage of highest proliferative response (100% = 28,255 c.p.m. for peptide 77)
Description: (§1) The proliferation of TCC in response to PS-SCL or individual peptides was tested by seeding in duplicate 2×10^4 T cells, 5×10^4 irradiated PBMC with or without mixtures from PS-SCL or peptide. Proliferation was measured by [^3H]-thymidine incorporation (Hemmer B. et al., 2000, J Immunol 164:861).
(§2) The proliferation of T-cell clones in response to PS-SCL or individual peptides was tested by seeding in duplicate 2×10^4 T-cells, 5×10^4 irradiated peripheral blood mononuclear cells with or without 200 μg/ml PS-SCL or peptide (Hemmer, B. et al. 1998, J Pept Res 52: 338-345). Proliferation was measured by ^3H-thymidine incorporation (Hemmer, B. et al. 1997, J Exp Med 185: 1651-1659). Experiments were repeated at least twice. HLA restriction was determined by using bare lymphocyte syndrome cells transfected with DR2a (DRB5*0101) or DR2b (DRB1*1501) (provided by G. Nepom, University of Washington, Seattle) (Kovats, S. et al. 1994, J Exp Med 179: 2017-2022). The proliferation of peripheral blood mononuclear cells was measured in an IL-7-modified 7-day primary proliferation assay. Peripheral blood mononuclear cells (1×10^5 per well; 10 wells each and 10 control wells per plate) were seeded with 10 ng/ml IL-7 and 15 μg/ml peptide. Then, 1 μCi ^3H-thymidine/well was added at day 7 for 12 h before radioactivity was measured. Wells were considered positive if the counts per minute exceeded the average background proliferation+3 s.d. (Reece J. C. et al., 1993, Immunol 151: 6175-6184).

[1] = test system: peripheral blood mononuclear cells; assay: IL-7-modified 7-day primary proliferation assay of peripheral blood mononuclear cells; conditions: number of wells of 10 with positive primary proliferative response, 15 μg/ml peptide
Description: as §2

[2] = test system: TCRζ-chain phosphoisoforms / ZAP-70 in CSF-3 cells; assay: T-cell-receptor signaling (tyrosine phosphorylation of TCR subunits, ZAP-70 immunoprecipitation); conditions: CSF-3 cells stimulated 5 or 10 min
Description: T-cells (1×10^6) were added to peptide-pulsed bare lymphocyte syndrome cells (2×10^6) and, after centrifugation (10 s at 300 g), were incubated at 37° C., washed once with PBS and incubated for 25 min on ice in lysis buffer (1% Nonidet-P40, 10 mM Tris-HCl, pH 7.2, 140 mM NaCl, 2 mM EDTA, 5 mM iodoacetamide, 1 mM Na3VO4 and complete protease inhibitor ‘cocktail’; Boehringer). After nuclear debris were removed, proteins in lysate supernatants were immunoprecipitated by incubation at 4° C. for 12 h with rabbit antibody against ZAP-70 (provided by L. Samelson, National Institute of Child Health and Human Development, National Institutes of Health). Proteins were separated by SDS-PAGE and immunoblotted with 4G10, a mouse monoclonal antibody against phosphotyrosine (Upstate Biotechnology, Lake Placid, N.Y.).

TCC GP5F11 = assay: Proliferative assay of TCC GP5F11 (3H-thymidine incorporation); conditions: FIG. 4; result in words
Description: as §1

[3] = background 1,306 ± 582 c.p.m., Table 9
[4] = human autoantigenic mimics, Table 9
[5] = background 2,899 ± 1,417 c.p.m., Table 8
[6] = B. burgdorferi peptides, Table 8
[7] = background 2,899 ± 1,417 c.p.m., Table 10

Substance | EC50 (T-cell clone CSF-3) [µg/mL] | PB PP [1, 5] | Potency EC50 (T-cell clone CSF-3; [6]) [µg/mL] | Potency % of Max. response (T-cell clone CSF-3; Table 8) [%] | other results
DNIFKKETLI [D N I F K K E T L I, DNIFKKETLI] | 1 | – | – | – | –
DNITSSVLFN [Peptide 71, DNITSSVLFN] | – | – | – | – | PB PP [1, 3]: 5; effect on early TCR signaling events (TCRζ-chain p38 phospho-isoforms, recruitment of active ZAP-70) [2]: fall agonist response; Potency EC50 (T-cell clone CSF-3; [4]): 0.1 to 1 µg/mL; Potency max. response (T-cell clone CSF-3; Table 9): 60.6%
ENIKKILLRE [Peptide 46, ENIKKILLRE] | – | 3 | 0.1 to 1 | 65.1 | –
ENIYYSSVRT [Peptide 77, ENIYYSSVRT] | – | – | – | – | PB PP [1, 7]: 3; Potency EC50 (T-cell clone CSF-3; viral mimic peptides, Table 10): 1 to 10 µg/mL; Potency % of max. response (T-cell clone CSF-3; Table 10): 100%
ENVKKSRRLI [Peptide 66, ENVKKSRRLI] | – | – | – | – | PB PP [1, 3]: 0; Potency EC50 (T-cell clone CSF-3; [4]): 0.1 to 1 µg/mL; Potency max. response (T-cell clone CSF-3; Table 9): 64.1%
FFIKKRSLII [Peptide 54, FFIKKRSLII] | 1 | 5 | 1 to 10 | 59.8 | –
FNIIKSLLGG [52′, FNIIKSLLGG] | – | – | – | – | Potency EC50 (T-cell clone CSF-3; viral mimic peptides, Table 10): 1 to 10 µg/mL; stimulation (proliferation) of T-cell clone CSF-3 (T-cell clone CSF-3; result in words): stimulatory
FNIIKVHSSL [Peptide 37, FNIIKVHSSL] | – | 1 | 0.001 to 0.01 | 69.3 | –
FNITSSIRNK [Peptide 75, FNITSSIRNK] | – | – | – | – | PB PP [1, 7]: 1; Potency EC50 (T-cell clone CSF-3; viral mimic peptides, Table 10): 1 µg/mL; Potency % of max. response (T-cell clone CSF-3; Table 10): 63.5%
FNITSSTCEL [Peptide 64, FNITSSTCEL] | – | – | – | – | PB PP [1, 3]: 1; Potency EC50 (T-cell clone CSF-3; [4]): 0.1 to 1 µg/mL; Potency max. response (T-cell clone CSF-3; Table 9): 66.3%
FNIYKRVVDN [F N I Y K R V V D N, FNIYKRVVDN] | 1 | – | – | – | –
GHIKKKRVEA [Peptide 63, GHIKKKRVEA] | – | – | – | – | PB PP [1, 3]: 0; Potency EC50 (T-cell clone CSF-3; [4]): 1 to 10 µg/mL; Potency max. response (T-cell clone CSF-3; Table 9): 56.5%
LHIISKRVEA [Peptide 61, LHIISKRVEA] | – | – | – | – | PB PP [1, 3]: 0; Potency EC50 (T-cell clone CSF-3; [4]): 0.1 to 1 µg/mL; Potency max. response (T-cell clone CSF-3; Table 9): 70.0%
LNIKNSKLEI [Peptide 30, LNIKNSKLEI] | – | 0 | <0.001 | 64.2 | –
LNITSSSYLF [Peptide 42, LNITSSSYLF] | – | 0 | 1 to 10 | 71.4 | –
NNIDKKVYTN [N N I D K K V Y T N, NNIDKKVYTN] | 1 to 10 | – | – | – | –

Substance | EC50 (T-cell clone CSF-3) [µg/mL] | PB PP [1, 5] | Potency EC50 (T-cell clone CSF-3; [6]) [µg/mL] | Potency % of Max. response (T-cell clone CSF-3; Table 8) [%] | other results
NNIKSKVDNA [Peptide 47, NNIKSKVDNA] | – | 0 | 1 to 10 | 80.6 | –
NNIYKKALIS [Peptide 59, NNIYKKALIS] | 1 | 3 | 0.1 to 1 | 68.1 | effect on early TCR signaling events (TCRζ-chain p38 phospho-isoforms, recruitment of active ZAP-70) [2]: fall agonist response
PIP5 KIII246-255: low-scoring peptide derived from H. sapiens phosphatidylinositol-4-phosphate 5-kinase type III (LDPSEPRTPV; UniProt Q9Y2I7 246-255, looked up, fragment) | – | – | – | – | proliferative response of TCC GP5F11 (potency) (TCC GP5F11): non-stimulatory
PNITFSVVYN [Peptide 74, PNITFSVVYN] | – | – | – | – | PB PP [1, 7]: 0; Potency EC50 (T-cell clone CSF-3; viral mimic peptides, Table 10): 0.1 to 1 µg/mL; Potency % of max. response (T-cell clone CSF-3; Table 10): 78.3%
QAIGKKTQNN [Peptide 26, QAIGKKTQNN] | – | 3 | <0.001 | 80.8 | –
RNIFKKTVEN [R N I F K K T V E N, RNIFKKTVEN] | >100 | – | – | – | –
SFIYSVVCLV [Peptide 62, SFIYSVVCLV] | – | – | – | – | PB PP [1, 3]: 9; Potency EC50 (T-cell clone CSF-3; [4]): 0.1 to 1 µg/mL; Potency max. response (T-cell clone CSF-3; Table 9): 75.7%
SNIIKKTSED [Peptide 57, SNIIKKTSED] | 1 | 4 | 0.1 to 1 | 65.2 | –
SNIIKSLSLF [S N I I K S L S L F, SNIIKSLSLF] | 0.1 to 1 | – | – | – | –
SNIKSKLILV [S N I K S K L I L V, SNIKSKLILV] | 1 | – | – | – | –
TLITKKISAI [Peptide 28, TLITKKISAI] | – | 1 | <0.001 | 65.9 | –
WMKQNIGRFL [predicted stimulatory peptide with optimal amino acids in each position for TCC GP5F11] | – | – | – | – | proliferative response of TCC GP5F11 (potency) (TCC GP5F11): two orders of magnitude more potent than the target sequence
YNIIVSSLLL [Y N I I V S S L L L, YNIIVSSLLL] | 1 to 10 | – | – | – | –
YNIKKIKVED [Peptide 38, YNIKKIKVED] | – | 1 | 0.1 to 1 | 62.7 | –
YVKQNTLKLA (listed as Influenza virus) [Flu-HA308-317, influenza virus hemagglutinin decamer, target peptide of TCC GP5F11, reference compound] | – | – | – | – | proliferative response of TCC GP5F11 (potency) (TCC GP5F11): intermediate potency
